Earlier results in PMC8508678, “Novel P2X7 Antagonist Ameliorates the Early Phase of ALS Disease and Decreases Inflammation and Autophagy in SOD1-G93A Mouse Model” (International Journal of Molecular Sciences, 2021).
Where two headings read alike, the source gives them in different places.

What was measured:
[1] = system: SOD1-G93A mice; parameters: key to Motor behavior / Survival: The symbol ↑ refers to upregulation; ↓ to downregulation; = indicates no change with respect to the vehicle-treated SOD1-G93A mice
[2] = system: SOD1-G93A mice; parameters: key to NF-κB / NOX2 / P2X7 / ARG1 / CD68 / GFAP / LC3B-II: The symbol ↑ refers to upregulation; ↓ to downregulation; = indicates no change with respect to the vehicle-treated SOD1-G93A mice
[3] = system: SOD1-G93A mice; parameters: key to Motor Neuron loss: The symbol ↑ refers to upregulation; ↓ to downregulation; = indicates no change with respect to the vehicle-treated SOD1-G93A mice
[4] = ALS mice, four times per week starting at post-natal day 60 ref 41
[5] = SOD1-G93A mice, vs vehicle ref 31
[6] = SOD1-G93A mice, vs vehicle ref 28, 29

In the case of `O=C(NCC1(N2CCN(c3ccccc3)CC2)CCOCC1)c1cccnc1Sc1ccccc1` [JNJ-47965567], the “disease onset, body weight loss and motor parameters” value [1, 4] is listed as “able to delay disease onset, reduce body weight loss, and improve the motor parameters”, the “survival or motor neuron number” value [1, 4] is listed as “without affecting” and the “survival, disease progression, molecular and cellular parameters of ALS” value ([1]; SOD1-G93A mice, three times per week from the early symptomatic phase ref 32) is listed as “totally failed”.

For `C[C@H](N=C(NC#N)Nc1cccc2ncccc12)c1ccccc1` [A804598], the “amelioration of disease progression” value ([1]; SOD1-G93A mice ref 31) is given as “failed”, the Motor behavior [1, 5] is given as “=” and the Survival [1, 5] is given as “=”. For the same molecule, the “P2X7 expression levels in the spinal cord” value ([2]; SOD1-G93A mice ref 31) was “failed to affect”, the “autophagic substrate p62 accumulating in vivo” value ([2]; SOD1-G93A mice ref 31) was “decreases” and the “motor neuron loss or astrogliosis and microgliosis in the spinal cord” value ([2]; SOD1-G93A mice ref 31) was “neither A804598 nor AXX13 treatments affected”. For the same molecule, the ARG1 [2, 5] was “=”, the CD68 [2, 5] was “=” and the GFAP [2, 5] was “=”. The LC3B-II [2, 5] was “=”, the NF-κB [2, 5] was “=” and the NOX2 [2, 5] was “=”. For the same molecule, the P2X7 [2, 5] was “=”, the “IL-1β mRNA expression” value ([2]; SOD1-G93A mice, only this inflammatory marker affected ref 31) was “downregulated” and the “Motor Neuron loss” value [3, 5] was “=”.

For `CCOc1ccc(Nc2ccc(/C(=C3C=C/C(=[N+](/CC)Cc4cccc(S(=O)(=O)[O-])c4)C=C/3C)c3ccc(N(CC)Cc4cccc(S(=O)(=O)O)c4)cc3C)cc2)cc1` [BBG, brilliant blue G], the disease onset ([1]; ALS mice, modest improvement in general conditions and motor performance ref 29) is given as “induces a delay of disease onset”, the Survival [1, 6] is given as “=” and the microgliosis ([2]; SOD1-G93A mice ref 29) is given as “reduces”. For the same molecule, the GFAP [2, 6] was “=”, the P2X7 [2, 6] was “=” and the “motor neuron survival in the lumbar spinal cord” value ([3]; SOD1-G93A mice ref 29) was “enhances”.
